Measurements from ChEMBL document CHEMBL1909046, “DrugMatrix in vitro pharmacology data”.

Legend:
[1] = target: Vascular endothelial growth factor receptor 1 (Homo sapiens, UniProt P17948); test: biochemical; format: cell-based, HUVEC; details: huvec
[2] = target: C-C chemokine receptor type 2 (Homo sapiens, UniProt P41597); format: cell membranes, CHO-K1, Membrane; details: cho-k1
Leukotriene C4 synthase = target: T1, Leukotriene C4 synthase (Cavia porcellus, UniProt A6XA80); format: tissue-based, Lung;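 also: enzyme inhibition assay of leukotriene C4 synthase, using LTA4 as the substrate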
T1 sequence (A6XA80 whole entry): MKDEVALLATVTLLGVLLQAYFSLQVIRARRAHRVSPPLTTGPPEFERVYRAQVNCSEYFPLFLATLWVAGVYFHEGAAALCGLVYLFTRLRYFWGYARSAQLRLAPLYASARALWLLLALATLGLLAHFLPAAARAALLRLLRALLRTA

[3] = target: T2, Nitric oxide synthase, inducible (Mus musculus, UniProt P29477); set-up: species or system Escherichia coli;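 also: inhibition of iNOS enzyme activity measured with L-arginine as substrate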
T2 sequence (P29477 whole entry): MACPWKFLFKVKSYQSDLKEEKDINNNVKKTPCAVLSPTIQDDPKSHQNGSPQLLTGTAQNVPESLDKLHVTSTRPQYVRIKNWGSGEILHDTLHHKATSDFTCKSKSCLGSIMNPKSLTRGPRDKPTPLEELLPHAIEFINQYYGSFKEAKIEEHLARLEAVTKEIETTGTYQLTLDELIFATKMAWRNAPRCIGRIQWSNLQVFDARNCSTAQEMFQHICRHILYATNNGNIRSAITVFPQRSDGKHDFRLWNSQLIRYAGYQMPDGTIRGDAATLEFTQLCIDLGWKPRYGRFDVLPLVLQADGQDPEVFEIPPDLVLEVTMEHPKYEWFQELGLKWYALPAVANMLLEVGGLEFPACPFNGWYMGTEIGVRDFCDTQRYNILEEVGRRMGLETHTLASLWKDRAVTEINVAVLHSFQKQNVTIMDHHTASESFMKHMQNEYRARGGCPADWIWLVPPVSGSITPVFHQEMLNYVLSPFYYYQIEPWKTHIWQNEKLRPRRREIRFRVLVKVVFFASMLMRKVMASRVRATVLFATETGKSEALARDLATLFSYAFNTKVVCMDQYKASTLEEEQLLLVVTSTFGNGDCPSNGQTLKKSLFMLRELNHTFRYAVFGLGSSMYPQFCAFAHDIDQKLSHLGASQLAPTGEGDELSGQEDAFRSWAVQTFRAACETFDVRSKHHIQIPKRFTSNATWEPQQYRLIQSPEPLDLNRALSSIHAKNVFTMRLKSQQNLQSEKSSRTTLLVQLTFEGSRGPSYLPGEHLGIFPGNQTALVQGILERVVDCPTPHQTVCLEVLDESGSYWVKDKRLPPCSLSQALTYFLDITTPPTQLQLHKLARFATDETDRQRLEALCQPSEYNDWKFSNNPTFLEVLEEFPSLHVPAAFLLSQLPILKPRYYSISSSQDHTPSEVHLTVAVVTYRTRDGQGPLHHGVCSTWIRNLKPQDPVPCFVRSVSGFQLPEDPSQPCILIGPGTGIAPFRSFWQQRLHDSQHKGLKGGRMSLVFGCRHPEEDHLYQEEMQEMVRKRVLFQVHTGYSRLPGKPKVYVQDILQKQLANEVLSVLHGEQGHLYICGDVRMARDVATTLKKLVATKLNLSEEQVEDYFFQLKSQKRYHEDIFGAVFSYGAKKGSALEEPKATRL

Neutrophil elastase = target: T3, Neutrophil elastase (Homo sapiens, UniProt P08246); format: tissue-based;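 also: inhibition of neutrophil elastase enzyme activity, measured with a p-nitroanilide-linked peptide substrate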
T3 sequence (P08246 whole entry): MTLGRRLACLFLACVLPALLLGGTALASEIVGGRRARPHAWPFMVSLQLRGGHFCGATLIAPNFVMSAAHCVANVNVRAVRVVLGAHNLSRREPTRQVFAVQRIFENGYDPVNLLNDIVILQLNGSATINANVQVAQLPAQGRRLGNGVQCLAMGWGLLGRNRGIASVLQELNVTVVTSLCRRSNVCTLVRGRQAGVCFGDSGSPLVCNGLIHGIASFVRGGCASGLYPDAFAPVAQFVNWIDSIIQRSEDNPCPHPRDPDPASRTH

[4] = target: Voltage-gated inwardly rectifying potassium channel KCNH2 (Homo sapiens, UniProt Q12809); details: hek293
Estrogen receptor beta = Estrogen receptor beta (Homo sapiens, UniProt Q92731); details: sf9
Also: in other assays of this panel Not Active means under 50% inhibition at 10 µM.

Sequence of Estrogen receptor beta (Q92731 whole entry): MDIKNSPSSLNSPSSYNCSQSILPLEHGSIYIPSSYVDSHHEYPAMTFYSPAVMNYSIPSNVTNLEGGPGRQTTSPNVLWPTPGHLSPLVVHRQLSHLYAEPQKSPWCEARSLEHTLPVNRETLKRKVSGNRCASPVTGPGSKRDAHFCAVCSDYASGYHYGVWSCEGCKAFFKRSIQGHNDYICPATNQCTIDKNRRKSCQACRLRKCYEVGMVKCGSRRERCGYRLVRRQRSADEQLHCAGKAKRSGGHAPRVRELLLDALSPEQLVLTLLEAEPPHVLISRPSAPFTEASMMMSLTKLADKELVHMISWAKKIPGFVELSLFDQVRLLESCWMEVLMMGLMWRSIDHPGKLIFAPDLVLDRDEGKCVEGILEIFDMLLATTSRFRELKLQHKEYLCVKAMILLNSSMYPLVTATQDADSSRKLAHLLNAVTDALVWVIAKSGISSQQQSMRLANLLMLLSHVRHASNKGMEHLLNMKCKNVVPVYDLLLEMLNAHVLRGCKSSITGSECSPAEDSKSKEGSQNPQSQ
Sequence of Voltage-gated inwardly rectifying potassium channel KCNH2 (Q12809 whole entry): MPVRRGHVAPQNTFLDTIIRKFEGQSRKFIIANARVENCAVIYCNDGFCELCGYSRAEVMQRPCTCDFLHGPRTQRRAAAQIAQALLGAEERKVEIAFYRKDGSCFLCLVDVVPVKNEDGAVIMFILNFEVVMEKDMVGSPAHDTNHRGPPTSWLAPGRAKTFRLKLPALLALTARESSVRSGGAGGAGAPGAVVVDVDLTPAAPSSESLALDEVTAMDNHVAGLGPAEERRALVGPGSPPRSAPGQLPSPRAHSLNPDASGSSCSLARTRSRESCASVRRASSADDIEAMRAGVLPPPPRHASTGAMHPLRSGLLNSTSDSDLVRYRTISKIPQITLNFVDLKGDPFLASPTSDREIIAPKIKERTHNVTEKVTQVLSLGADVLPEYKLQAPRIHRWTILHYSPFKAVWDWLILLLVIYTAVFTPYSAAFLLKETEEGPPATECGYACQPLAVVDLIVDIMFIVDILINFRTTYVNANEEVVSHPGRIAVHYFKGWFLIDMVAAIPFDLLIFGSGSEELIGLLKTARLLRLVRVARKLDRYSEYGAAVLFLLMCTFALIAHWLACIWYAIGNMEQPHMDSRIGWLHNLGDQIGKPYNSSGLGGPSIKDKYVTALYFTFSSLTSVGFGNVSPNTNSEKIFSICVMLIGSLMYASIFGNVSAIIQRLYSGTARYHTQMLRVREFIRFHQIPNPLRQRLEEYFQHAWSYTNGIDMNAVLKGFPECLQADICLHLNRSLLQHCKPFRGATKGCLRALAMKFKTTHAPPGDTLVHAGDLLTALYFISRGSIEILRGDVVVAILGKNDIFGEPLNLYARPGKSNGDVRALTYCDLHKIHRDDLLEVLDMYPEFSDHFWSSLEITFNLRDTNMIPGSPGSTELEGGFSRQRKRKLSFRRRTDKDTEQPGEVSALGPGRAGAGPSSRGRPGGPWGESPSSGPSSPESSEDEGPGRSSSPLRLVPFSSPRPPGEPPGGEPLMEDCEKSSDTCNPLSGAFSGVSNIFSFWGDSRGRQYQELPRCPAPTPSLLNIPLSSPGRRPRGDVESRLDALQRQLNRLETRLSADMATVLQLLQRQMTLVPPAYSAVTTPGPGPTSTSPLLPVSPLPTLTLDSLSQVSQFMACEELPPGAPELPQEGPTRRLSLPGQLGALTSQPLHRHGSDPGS
Sequence of Vascular endothelial growth factor receptor 1 (P17948 whole entry): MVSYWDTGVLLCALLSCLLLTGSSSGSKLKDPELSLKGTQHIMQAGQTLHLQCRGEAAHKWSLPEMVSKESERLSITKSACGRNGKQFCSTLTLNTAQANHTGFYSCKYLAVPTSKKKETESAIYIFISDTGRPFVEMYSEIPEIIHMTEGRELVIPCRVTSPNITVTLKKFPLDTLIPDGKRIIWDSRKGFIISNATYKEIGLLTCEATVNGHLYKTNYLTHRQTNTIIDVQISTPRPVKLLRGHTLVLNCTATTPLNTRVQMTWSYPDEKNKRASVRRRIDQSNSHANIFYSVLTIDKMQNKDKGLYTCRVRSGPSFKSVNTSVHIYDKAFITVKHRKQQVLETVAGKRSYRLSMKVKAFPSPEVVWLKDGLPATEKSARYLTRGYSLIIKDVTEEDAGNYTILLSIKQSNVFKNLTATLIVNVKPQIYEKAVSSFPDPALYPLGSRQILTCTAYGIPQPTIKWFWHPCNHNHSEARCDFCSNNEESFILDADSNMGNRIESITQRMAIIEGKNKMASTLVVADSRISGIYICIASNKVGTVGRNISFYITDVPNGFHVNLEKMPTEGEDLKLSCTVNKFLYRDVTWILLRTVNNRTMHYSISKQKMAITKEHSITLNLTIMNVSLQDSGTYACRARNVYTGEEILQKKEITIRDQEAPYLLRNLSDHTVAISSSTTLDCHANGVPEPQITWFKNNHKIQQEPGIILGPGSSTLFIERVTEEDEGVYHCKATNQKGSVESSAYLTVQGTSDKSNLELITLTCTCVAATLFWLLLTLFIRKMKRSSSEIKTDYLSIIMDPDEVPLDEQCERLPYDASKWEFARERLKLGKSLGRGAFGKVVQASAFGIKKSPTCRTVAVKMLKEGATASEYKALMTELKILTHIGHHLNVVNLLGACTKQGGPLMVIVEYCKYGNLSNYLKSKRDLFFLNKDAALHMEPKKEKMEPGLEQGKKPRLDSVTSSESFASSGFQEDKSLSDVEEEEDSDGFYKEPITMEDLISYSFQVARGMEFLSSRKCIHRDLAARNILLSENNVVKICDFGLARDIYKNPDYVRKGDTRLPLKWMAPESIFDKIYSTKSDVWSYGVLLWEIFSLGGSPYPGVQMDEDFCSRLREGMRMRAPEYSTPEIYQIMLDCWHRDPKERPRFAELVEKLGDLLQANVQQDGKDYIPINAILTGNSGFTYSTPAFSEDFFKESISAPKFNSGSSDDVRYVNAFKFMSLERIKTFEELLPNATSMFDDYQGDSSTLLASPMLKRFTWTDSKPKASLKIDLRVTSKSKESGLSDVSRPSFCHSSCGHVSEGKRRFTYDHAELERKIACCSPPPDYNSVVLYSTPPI
Sequence of C-C chemokine receptor type 2 (P41597 whole entry): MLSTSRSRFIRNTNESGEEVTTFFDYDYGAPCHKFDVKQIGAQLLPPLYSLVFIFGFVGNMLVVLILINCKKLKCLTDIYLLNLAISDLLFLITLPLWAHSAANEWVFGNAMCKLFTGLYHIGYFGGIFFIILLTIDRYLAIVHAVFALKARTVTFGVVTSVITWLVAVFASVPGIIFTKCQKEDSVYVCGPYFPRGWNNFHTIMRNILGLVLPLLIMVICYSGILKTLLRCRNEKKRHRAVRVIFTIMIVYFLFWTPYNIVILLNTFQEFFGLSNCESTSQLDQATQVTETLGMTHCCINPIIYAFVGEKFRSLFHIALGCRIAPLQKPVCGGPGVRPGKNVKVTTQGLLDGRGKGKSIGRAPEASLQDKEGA

[N-]=[N+]=CC(=O)OC[C@H](N)C(=O)O [AZASERINE]
Not Active: IC50 [1] | IC50 [2] | IC50 (Leukotriene C4 synthase) | IC50 [3] | IC50 (Neutrophil elastase) | IC50 [4] | Ki [4]

CC[C@H]1OC(=O)[C@H](C)[C@@H](O[C@H]2C[C@@](C)(OC)[C@@H](O)[C@H](C)O2)[C@H](C)[C@@H](O[C@@H]2O[C@H](C)C[C@H](N(C)C)[C@H]2O)[C@](C)(O)C[C@@H](C)CN(C)[C@H](C)[C@@H](O)[C@]1(C)O [AZITHROMYCIN]
Not Active: IC50 [1] | IC50 [2] | IC50 (Leukotriene C4 synthase) | IC50 [3] | IC50 (Neutrophil elastase) | IC50 (Estrogen receptor beta) | IC50 [4] | Ki [4]

O=c1cc(-c2ccccc2)oc2ccc3ccccc3c12 [BETA-NAPHTHOFLAVONE]
Not Active: IC50 [1] | IC50 [2] | IC50 (Leukotriene C4 synthase) | IC50 [3] | IC50 (Neutrophil elastase) | IC50 (Estrogen receptor beta) | IC50 [4] | Ki [4]

CS(=O)(=O)OCCCCOS(C)(=O)=O [BUSULFAN]
Not Active: IC50 [1] | IC50 [2] | IC50 (Leukotriene C4 synthase) | IC50 [3] | IC50 (Neutrophil elastase) | IC50 [4] | Ki [4]

NC(=O)N1c2ccccc2C=Cc2ccccc21 [CARBAMAZEPINE]
Not Active: IC50 [1] | IC50 [2] | IC50 (Leukotriene C4 synthase) | IC50 [3] | IC50 (Neutrophil elastase) | IC50 (Estrogen receptor beta) | IC50 [4] | Ki [4]

CCC[C@@H]1C[C@@H](C(=O)N[C@@H]([C@H]2O[C@H](SC)[C@H](O)[C@@H](O)[C@H]2O)[C@H](C)Cl)N(C)C1 [CLINDAMYCIN]
Not Active: IC50 [1] | IC50 [2] | IC50 (Leukotriene C4 synthase) | IC50 [3] | IC50 (Neutrophil elastase) | IC50 (Estrogen receptor beta)

O=C(O)c1cc(=O)c2c(OCC(O)COc3cccc4oc(C(=O)O)cc(=O)c34)cccc2o1 [CROMOLYN]
Not Active: IC50 [1] | IC50 [2] | IC50 (Leukotriene C4 synthase) | IC50 [3] | IC50 (Neutrophil elastase) | IC50 (Estrogen receptor beta) | IC50 [4] | Ki [4]

CC(=O)O[C@]1(C(C)=O)CC[C@H]2[C@@H]3C=C(Cl)C4=CC(=O)[C@@H]5C[C@@H]5[C@]4(C)[C@H]3CC[C@@]21C [CYPROTERONE ACETATE]
Not Active: IC50 [1] | IC50 [2] | IC50 (Leukotriene C4 synthase) | IC50 [3] | IC50 (Neutrophil elastase) | IC50 (Estrogen receptor beta) | IC50 [4] | Ki [4]

C#C[C@]1(O)CC[C@H]2[C@@H]3CCC4=Cc5oncc5C[C@]4(C)[C@H]3CC[C@@]21C [DANAZOL]
Not Active: IC50 [1] | IC50 [2] | IC50 (Leukotriene C4 synthase) | IC50 [3] | IC50 (Neutrophil elastase) | IC50 (Estrogen receptor beta) | IC50 [4] | Ki [4]

C[C@H](C(=O)O)c1cccc(C(=O)c2ccccc2)c1 [DEXKETOPROFEN]
Not Active: IC50 [1] | IC50 [2] | IC50 (Leukotriene C4 synthase) | IC50 [3] | IC50 (Neutrophil elastase) | IC50 (Estrogen receptor beta) | IC50 [4] | Ki [4]

CCn1cc(C(=O)O)c(=O)c2cc(F)c(N3CCNCC3)nc21 [ENOXACIN]
Not Active: IC50 [1] | IC50 [2] | IC50 (Leukotriene C4 synthase) | IC50 [3] | IC50 (Neutrophil elastase) | IC50 (Estrogen receptor beta) | IC50 [4] | Ki [4]

C#C[C@]1(O)CC[C@H]2[C@@H]3CCc4cc(O)ccc4[C@H]3CC[C@@]21C [ETHINYL ESTRADIOL]
Not Active: IC50 [1] | IC50 [2] | IC50 (Leukotriene C4 synthase) | IC50 [3] | IC50 (Neutrophil elastase) | IC50 (Estrogen receptor beta) | IC50 [4] | Ki [4]

OCCO [ETHYLENE GLYCOL]
Not Active: IC50 [1] | IC50 [2] | IC50 (Leukotriene C4 synthase) | IC50 [3] | IC50 (Neutrophil elastase) | IC50 [4] | Ki [4]

NC[C@@H]1O[C@H](O[C@H]2[C@@H](O)[C@H](O[C@@H]3[C@@H](O)[C@H](N)C[C@H](N)[C@H]3O[C@H]3O[C@H](CN)[C@@H](O)[C@H](O)[C@H]3N)O[C@@H]2CO)[C@H](N)[C@@H](O)[C@@H]1O [FRAMYCETIN]
Not Active: IC50 [1] | IC50 [2] | IC50 (Leukotriene C4 synthase) | IC50 [3] | IC50 (Neutrophil elastase) | IC50 (Estrogen receptor beta) | IC50 [4] | Ki [4]

COc1ccccc1OCC(O)CO (stereo not given) [GUAIFENESIN]
Not Active: IC50 [1] | IC50 [2] | IC50 (Leukotriene C4 synthase) | IC50 [3] | IC50 (Neutrophil elastase) | IC50 (Estrogen receptor beta) | IC50 [4] | Ki [4]

N=C(N)N/N=C/c1c(Cl)cccc1Cl [GUANABENZ]
Not Active: IC50 [1] | IC50 [2] | IC50 (Leukotriene C4 synthase) | IC50 [3] | IC50 (Neutrophil elastase) | IC50 [4] | Ki [4]

C[C@]12CCC(=O)C=C1CC[C@@H]1[C@@H]2[C@@H](O)C[C@@]2(C)[C@H]1CC[C@]2(O)C(=O)CO [HYDROCORTISONE]
Not Active: IC50 [1] | IC50 [2] | IC50 (Leukotriene C4 synthase) | IC50 [3] | IC50 (Neutrophil elastase) | IC50 (Estrogen receptor beta) | IC50 [4] | Ki [4]

CC(C(=O)O)c1ccc(CC2CCCC2=O)cc1 (stereo not given) [LOXOPROFEN]
Not Active: IC50 [1] | IC50 [2] | IC50 (Leukotriene C4 synthase) | IC50 [3] | IC50 (Neutrophil elastase) | IC50 (Estrogen receptor beta) | IC50 [4] | Ki [4]

CC(=O)O[C@]1(C(C)=O)CC[C@H]2[C@@H]3C=C(C)C4=CC(=O)CC[C@]4(C)[C@H]3CC[C@@]21C [MEGESTROL ACETATE]
Not Active: IC50 [1] | IC50 [2] | IC50 (Leukotriene C4 synthase) | IC50 [3] | IC50 (Neutrophil elastase) | IC50 [4] | Ki [4]

CN(Cc1cnc2nc(N)nc(N)c2n1)c1ccc(C(=O)N[C@@H](CCC(=O)O)C(=O)O)cc1 [METHOTREXATE]
Not Active: IC50 [1] | IC50 [2] | IC50 (Leukotriene C4 synthase) | IC50 [3] | IC50 (Neutrophil elastase) | IC50 (Estrogen receptor beta) | IC50 [4] | Ki [4]

COC(=O)c1ccccc1O [METHYL SALICYLATE]
Not Active: IC50 [1] | IC50 [2] | IC50 (Leukotriene C4 synthase) | IC50 [3] | IC50 (Neutrophil elastase) | IC50 (Estrogen receptor beta) | IC50 [4] | Ki [4]

O=C(O)c1cccnc1 [NIACIN]
Not Active: IC50 [1] | IC50 [2] | IC50 (Leukotriene C4 synthase) | IC50 [3] | IC50 (Neutrophil elastase) | IC50 (Estrogen receptor beta) | IC50 [4] | Ki [4]

CC(C)(CO)C(O)C(=O)NCCCO (stereo not given) [PANTHENOL]
Not Active: IC50 [1] | IC50 [2] | IC50 (Leukotriene C4 synthase) | IC50 [3] | IC50 (Neutrophil elastase) | IC50 (Estrogen receptor beta) | IC50 [4] | Ki [4]

COc1ccc(Cc2nccc3cc(OC)c(OC)cc23)cc1OC [PAPAVERINE]
Not Active: IC50 [1] | IC50 [2] | IC50 (Leukotriene C4 synthase) | IC50 [3] | IC50 (Neutrophil elastase) | IC50 (Estrogen receptor beta) | IC50 [4] | Ki [4]
